One data set deals with TAK1/TAB1 (Homo sapiens, UniProt O43318). The experiment in a line: Inhibition of recombinant human full-length His-tagged TAK1-TAB1 fusion protein (437 to 504 residues) expressed in baculovirus expression system using fluorescein-MAP2K1 as substrate preincubated for 30 mins followed by substrate addition and measured after 60 mins in presence of ATP by lanthascreen TR-FRET assay. (In TR-FRET formats the signal depends on donor and acceptor labels being close together.)

The nature of data set [1]: Half life in human liver S9 fraction at 1 uM measured up to 60 mins in presence of NADPH by LC-MS analysis. In kind it is ADME, subcellular.
The nature of data set [2]: Half life in rat liver S9 fraction at 1 uM measured up to 60 mins in presence of NADPH by LC-MS analysis. The class given is ADME, subcellular.
The nature of data set [3]: Half life in CD-1 mouse liver S9 fraction at 1 uM measured up to 60 mins in presence of NADPH by LC-MS analysis. The class given is ADME, subcellular.
Another data set relates to HCT-15. The experiment in a line: Cytotoxicity against TNFalpha-induced human HCT-15 cells assessed as reduction in cell viability up to 10 uM preincubated for 2 hrs followed by TNFalpha stimulation and measured after 72 hrs by celltiter-glo assay. In kind it is functional, cell-based. The conditions noted are these: dose microM <=10, time 74.0 hrs. (In general: ATP-based viability assays read luminescence as a measure of living cells.)

A short description of data set [4]: Apparent permeability across apical to basolateral side in human Caco-2 cells at 2 uM after 2 hrs by LC/MS-MS analysis. In kind it is ADME, cell-based. (In general: Caco-2 monolayers are a common model of the intestinal barrier.)
Data set [5] in a line: Apparent permeability across basolateral to apical side in human Caco-2 cells at 2 uM after 2 hrs by LC/MS-MS analysis. In kind it is ADME, cell-based.
Data set [6] can be described thus: Aqueous solubility of compound in pH 7.4 PBS buffer measured after 24 hrs by HPLC-UV analysis. In kind it is physicochemical.
The target of data set [7] is Phosphatidylinositol 4-phosphate 5-kinase type-1 gamma (Homo sapiens) (UniProt O60331). The experiment in a line: Inhibition wild type human partial length PIP5K1C (M1 to T668 residues) expressed in mammalian expression system at 10 uM by Kinomescan method relative to control. The note with it: dose 1.0 µM, in the assay text read “at 1 uM” for “at 10 uM”.
Phosphatidylinositol 4-phosphate 5-kinase type-1 gamma (Homo sapiens), sequence (O60331 whole entry, the tested form may be a part, canonical isoform): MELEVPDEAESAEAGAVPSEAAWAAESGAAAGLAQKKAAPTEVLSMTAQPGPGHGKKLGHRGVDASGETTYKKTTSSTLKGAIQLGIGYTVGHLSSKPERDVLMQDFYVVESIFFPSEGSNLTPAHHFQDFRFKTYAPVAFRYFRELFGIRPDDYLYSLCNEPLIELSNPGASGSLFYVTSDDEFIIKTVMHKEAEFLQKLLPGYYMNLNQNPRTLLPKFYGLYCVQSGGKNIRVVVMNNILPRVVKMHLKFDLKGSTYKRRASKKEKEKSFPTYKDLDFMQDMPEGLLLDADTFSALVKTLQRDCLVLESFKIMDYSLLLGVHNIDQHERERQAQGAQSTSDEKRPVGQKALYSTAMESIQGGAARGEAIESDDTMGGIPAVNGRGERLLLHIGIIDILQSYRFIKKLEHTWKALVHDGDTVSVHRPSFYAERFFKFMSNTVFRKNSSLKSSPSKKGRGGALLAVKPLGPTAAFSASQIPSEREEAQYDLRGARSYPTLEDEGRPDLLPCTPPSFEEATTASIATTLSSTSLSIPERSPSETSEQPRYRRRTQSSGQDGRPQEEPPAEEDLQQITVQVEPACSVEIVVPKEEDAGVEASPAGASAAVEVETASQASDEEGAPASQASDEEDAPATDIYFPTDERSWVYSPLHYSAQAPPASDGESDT
Data set [8] concerns the target T1, Phosphatidylinositol 4,5-bisphosphate 3-kinase catalytic subunit delta isoform (Homo sapiens) (UniProt O00329).
T1 sequence (whole entry): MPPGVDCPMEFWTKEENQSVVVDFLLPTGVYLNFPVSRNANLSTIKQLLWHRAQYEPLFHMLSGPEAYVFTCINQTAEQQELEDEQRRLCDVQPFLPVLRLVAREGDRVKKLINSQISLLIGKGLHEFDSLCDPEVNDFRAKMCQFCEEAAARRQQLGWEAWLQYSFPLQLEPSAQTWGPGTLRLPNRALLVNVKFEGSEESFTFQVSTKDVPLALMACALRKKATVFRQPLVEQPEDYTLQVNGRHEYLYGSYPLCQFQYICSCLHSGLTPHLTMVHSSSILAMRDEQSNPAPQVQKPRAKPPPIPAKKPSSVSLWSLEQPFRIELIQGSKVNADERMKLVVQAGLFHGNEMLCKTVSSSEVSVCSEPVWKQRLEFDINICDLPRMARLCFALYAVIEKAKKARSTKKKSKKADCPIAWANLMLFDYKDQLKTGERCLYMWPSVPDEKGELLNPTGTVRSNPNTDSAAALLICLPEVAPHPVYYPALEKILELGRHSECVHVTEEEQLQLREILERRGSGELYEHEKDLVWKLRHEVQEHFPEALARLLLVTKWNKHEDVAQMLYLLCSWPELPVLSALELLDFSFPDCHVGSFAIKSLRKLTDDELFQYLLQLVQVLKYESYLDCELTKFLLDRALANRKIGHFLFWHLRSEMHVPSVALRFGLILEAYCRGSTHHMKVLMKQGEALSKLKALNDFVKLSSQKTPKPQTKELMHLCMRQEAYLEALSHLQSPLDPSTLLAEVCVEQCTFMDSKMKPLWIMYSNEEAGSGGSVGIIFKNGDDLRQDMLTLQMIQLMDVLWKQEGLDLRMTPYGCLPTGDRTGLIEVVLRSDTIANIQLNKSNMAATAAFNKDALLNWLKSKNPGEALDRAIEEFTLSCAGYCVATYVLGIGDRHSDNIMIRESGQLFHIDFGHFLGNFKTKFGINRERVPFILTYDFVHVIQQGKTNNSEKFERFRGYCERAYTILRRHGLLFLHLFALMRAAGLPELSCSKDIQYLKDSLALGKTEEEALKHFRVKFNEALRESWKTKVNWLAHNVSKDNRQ
The experiment in a line: Inhibition of wild-type human partial length PIK3CD (R108 to Q1044 residues) expressed in mammalian expression system at 10 uM by Kinomescan method relative to control. The note with it: dose 1.0 µM, in the assay text read “at 1 uM” for “at 10 uM”.

Values after ≈ are worked out from the molar mass of the structure shown. Active and inactive are the calls of the source. No cut-off for these calls is given here.

TAK1/TAB1, sequence (Q15750 whole entry, the tested form may be a part): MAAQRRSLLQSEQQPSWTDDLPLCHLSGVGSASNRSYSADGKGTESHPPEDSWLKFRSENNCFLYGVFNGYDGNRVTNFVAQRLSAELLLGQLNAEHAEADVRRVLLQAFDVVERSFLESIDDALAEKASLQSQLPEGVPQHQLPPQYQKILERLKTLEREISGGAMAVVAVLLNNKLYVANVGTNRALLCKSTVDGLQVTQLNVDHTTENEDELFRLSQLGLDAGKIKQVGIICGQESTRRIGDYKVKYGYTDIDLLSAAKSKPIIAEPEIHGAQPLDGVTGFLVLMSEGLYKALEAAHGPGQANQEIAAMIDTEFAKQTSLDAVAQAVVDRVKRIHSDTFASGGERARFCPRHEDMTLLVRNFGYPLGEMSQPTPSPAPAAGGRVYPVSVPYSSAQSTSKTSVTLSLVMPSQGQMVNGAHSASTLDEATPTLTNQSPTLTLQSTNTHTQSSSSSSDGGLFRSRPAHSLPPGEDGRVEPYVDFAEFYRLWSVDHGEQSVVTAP
TAK1/TAB1, sequence (O43318 whole entry, the tested form may be a part): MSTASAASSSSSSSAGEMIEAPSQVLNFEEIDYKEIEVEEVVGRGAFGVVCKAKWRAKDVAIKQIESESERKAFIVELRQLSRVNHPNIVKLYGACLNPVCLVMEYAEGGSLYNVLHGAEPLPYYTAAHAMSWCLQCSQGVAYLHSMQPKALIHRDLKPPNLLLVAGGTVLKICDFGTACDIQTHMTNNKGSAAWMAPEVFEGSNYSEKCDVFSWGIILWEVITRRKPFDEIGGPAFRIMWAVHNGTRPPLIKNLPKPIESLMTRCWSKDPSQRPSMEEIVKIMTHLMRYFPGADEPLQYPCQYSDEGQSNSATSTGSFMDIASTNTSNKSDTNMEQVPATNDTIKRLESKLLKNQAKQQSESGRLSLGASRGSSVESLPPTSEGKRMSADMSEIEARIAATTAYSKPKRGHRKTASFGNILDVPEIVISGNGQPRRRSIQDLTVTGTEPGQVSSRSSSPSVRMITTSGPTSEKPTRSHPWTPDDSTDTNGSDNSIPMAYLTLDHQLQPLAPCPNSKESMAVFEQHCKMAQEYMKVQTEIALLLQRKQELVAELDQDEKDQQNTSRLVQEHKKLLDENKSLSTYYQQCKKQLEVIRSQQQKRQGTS

Regarding `CNC(=O)C(C)N(Cc1ccccc1OC(F)F)C(=O)c1c[nH]c(C(=O)N2CCCC2)n1` (stereo unspecified), the IC50 at TAK1/TAB1 is 500 nM.

For the compound `CNC(=O)CN(Cc1ccccc1OC(F)F)C(=O)c1cc(C(=O)N2CCCC2)[nH]n1`, the IC50 on TAK1/TAB1 was found to be 59000 nM.

Turning to `CNC(=O)C(C(C)C)N(Cc1ccccc1OC(F)F)C(=O)c1c[nH]c(C(=O)N2CCCC2)n1` (stereo unspecified), on TAK1/TAB1, the IC50 was above 10000 nM.

`CNC(=O)CN(Cc1ccccc1OC(F)F)C(=O)c1c[nH]c(C(=O)N2CCCCC2)c1`: the IC50 at TAK1/TAB1 was 1800 nM.

With `CCC(C(=O)NC)N(Cc1ccccc1OC(F)F)C(=O)c1c[nH]c(C(=O)N2CCCC2)n1` (stereo unspecified), the IC50 on TAK1/TAB1 is 1000 nM.

Regarding `CC(C)NC(=O)CN(Cc1ccccc1OC(F)F)C(=O)c1c[nH]c(C(=O)N2CCCC2)c1`, the half-maximal inhibitory concentration (IC50) on TAK1/TAB1 was 1700 nM.

Regarding `CNC(=O)CN(Cc1c(F)cccc1OC(F)F)C(=O)c1c[nH]c(C(=O)N2CCCC2)n1`, the concentration for half-maximal inhibition (IC50) at TAK1/TAB1 was above 10000 nM.

On to `CNC(=O)CN(Cc1ccccc1OC(F)F)C(=O)c1c[nH]c(C(=O)N(C)C)c1`, for which, on TAK1/TAB1, the IC50 was determined as 26000 nM.

For `O=C(c1c[nH]c(C(=O)N2CCCC2)c1)N(Cc1ncco1)Cc1ccccc1OC(F)F`, at TAK1/TAB1, the IC50 worked out at 3200 nM.

Regarding `CNC(=O)CN(C(=O)c1c[nH]c(C(=O)N2CCCC2)n1)C(C)c1ccccc1OC(F)F` (stereo unspecified), the IC50 on TAK1/TAB1 is above 10000 nM.

With `CNC(=O)CN(Cc1cc(F)ccc1OC(F)F)C(=O)c1c[nH]c(C(=O)N2CCCC2)n1`, the IC50 at TAK1/TAB1 is above 10000 nM.

`CNC(=O)[C@@H](C)N(Cc1ccccc1OC(F)F)C(=O)c1c[nH]c(C(=O)N2Cc3ccc(C(N)=O)cc3C2)n1`: the IC50 at TAK1/TAB1 was determined as 2 nM. The half-life at 1 µM in [1] came to 24 min; in [2], 19 min; in data set [3] it was 29 min. For the same compound, the result in the data set with HCT-15 was inactive. The Papp A→B at 2 h, 2 µM in [4] was 0.1 ×10⁻⁶ cm/s. Moreover, the Papp B→A at 2 h, 2 µM in data set [5] was found to be 6 ×10⁻⁶ cm/s. Besides, in [6], the solubility at 24 h stood at 5 µM (≈ 2.7 µg/mL).

On to `CNC(=O)CN(Cc1cccc2c1OCCCO2)C(=O)c1c[nH]c(C(=O)N2CCCC2)c1`, for which the IC50 at TAK1/TAB1 was determined as 3400 nM.

With `CNC(=O)CN(Cc1ccccc1OC(F)F)C(=O)c1cc(C(=O)N2CCCC2)n(C)c1`, on TAK1/TAB1, the IC50 was above 100000 nM.

Regarding `CNC(=O)CN(Cc1ccccc1OC(F)F)C(=O)c1c[nH]c(C(=O)N2CCC(F)C2)n1` (stereo unspecified), on TAK1/TAB1, the IC50 amounted to 1200 nM.

Regarding `CNC(=O)CN(Cc1cccc(OC(F)F)c1)C(=O)c1c[nH]c(C(=O)N2CCCC2)n1`, the IC50 at TAK1/TAB1 is above 10000 nM.

`CNC(=O)CN(Cc1ccccc1OC(F)F)C(=O)c1c[nH]c(C(=O)N2CCCCCC2)n1`: the IC50 on TAK1/TAB1 turned out to be 2900 nM.

Turning to `CCOc1ccccc1CN(CC(=O)NC)C(=O)c1c[nH]c(C(=O)N2CCCC2)c1`, the IC50 at TAK1/TAB1 was determined as 2600 nM.

Take `CNC(=O)CN(Cc1ccccc1OC(F)F)C(=O)c1c[nH]c(C(=O)N2CCC(OC)C2)n1` (stereo unspecified): on TAK1/TAB1, the concentration for half-maximal inhibition (IC50) was above 10000 nM.

In the case of `CNC(=O)[C@H](C)N(Cc1ccccc1OC(F)F)C(=O)c1c[nH]c(C(=O)N2CCCC2)n1`, the IC50 on TAK1/TAB1 was 4500 nM.

Regarding `NC(=O)CN(Cc1ccccc1OC(F)F)C(=O)c1c[nH]c(C(=O)N2CCCC2)c1`, the concentration for half-maximal inhibition (IC50) on TAK1/TAB1 stood at 900 nM.

Take `CNC(=O)[C@@H](C)N(Cc1ccccc1OC(F)F)C(=O)c1c[nH]c(C(=O)N2CCCC2)n1`: the IC50 on TAK1/TAB1 is 300 nM.

As for `CNC(=O)CN(Cc1ccccc1OC(F)F)C(=O)c1c[nH]c(C(=O)N2CCC(c3ccccc3)C2)n1` (stereo unspecified), the IC50 on TAK1/TAB1 came to 2300 nM.

As to `CNC(=O)CN(Cc1ccccc1OC(F)F)C(=O)c1c[nH]c(C(=O)N2CCC(NC(C)=O)C2)n1` (stereo unspecified), at TAK1/TAB1, the concentration for half-maximal inhibition (IC50) is above 10000 nM.

With `CNC(=O)CN(Cc1cccc2[nH]ccc12)C(=O)c1c[nH]c(C(=O)N2CCCC2)c1`, the IC50 at TAK1/TAB1 was 1800 nM.

For the compound `CNC(=O)CN(Cc1ccccc1OC(F)F)C(=O)c1c[nH]c(C(=O)N2Cc3ccc(C(N)=O)cc3C2)n1`, the IC50 at TAK1/TAB1 turned out to be 5 nM. In addition, the inhibition in data set [7] and in data set [8] was above 65% each time.

Take `CNC(=O)CN(Cc1cc(Cl)ccc1OC(F)F)C(=O)c1c[nH]c(C(=O)N2CCCC2)n1`: the IC50 at TAK1/TAB1 was above 10000 nM.

For the compound `CNC(=O)CN(Cc1c(Cl)cccc1OC(F)F)C(=O)c1c[nH]c(C(=O)N2CCCC2)n1`, at TAK1/TAB1, the IC50 was above 10000 nM.

Regarding `CNC(=O)CN(Cc1ccccc1OC(F)F)C(=O)c1c[nH]c(C(=O)N2CC3CCCCC3C2)n1` (stereo unspecified), at TAK1/TAB1, the IC50 turned out to be 3400 nM.

Take `CNC(=O)CN(Cc1ccccc1OC(F)F)C(=O)c1c[nH]c(C(=O)N2CCCCC2)n1`: the IC50 on TAK1/TAB1 was 1200 nM.

With `CNC(=O)CN(Cc1ccccc1OC(F)F)C(=O)c1c[nH]c(C(=O)N2CCCC2C)n1` (stereo unspecified), the IC50 at TAK1/TAB1 was determined as 5700 nM.

Turning to `CNC(=O)CN(Cc1ccc(OC)cc1OC(F)F)C(=O)c1c[nH]c(C(=O)N2CCCC2)n1`, the half-maximal inhibitory concentration (IC50) on TAK1/TAB1 was above 10000 nM.

In the case of `CNC(=O)CN(Cc1ccccc1OC(F)F)C(=O)c1c[nH]c(C(=O)N2CCC2)n1`, the IC50 on TAK1/TAB1 was found to be 2600 nM.

Consider `Nc1ncc(-c2cnn([C@H]3CC[C@H](O)CC3)c2)c2c(Cl)c(-c3cccc4nnsc34)oc12`, for which the IC50 on TAK1/TAB1 came to 10 nM.

For the compound `CN(Cc1ccccc1OC(F)F)C(=O)c1c[nH]c(C(=O)N2CCCC2)c1`, the IC50 on TAK1/TAB1 came to 3500 nM.

With `CNC(=O)CN(Cc1cccc(OC)c1OC(F)F)C(=O)c1c[nH]c(C(=O)N2CCCC2)n1`, the IC50 at TAK1/TAB1 is above 10000 nM.

For the compound `CCNC(=O)c1cc(C(=O)N(CC(=O)NC)Cc2ccccc2OC(F)F)c[nH]1`, the IC50 on TAK1/TAB1 is above 100000 nM.

In the case of `CNC(=O)CN(Cc1ccccc1OC(F)F)C(=O)c1c[nH]c(C(=O)N2CCCC2)c1`, the IC50 at TAK1/TAB1 turned out to be 1300 nM.

Consider `CNC(=O)CN(Cc1ccccc1OC(F)F)C(=O)c1c[nH]c(C(=O)N2Cc3ccccc3C2)n1`, for which the IC50 at TAK1/TAB1 was determined as 300 nM.

For the compound `CNC(=O)CN(Cc1ccccc1OC(F)F)C(=O)c1c[nH]c(C(=O)N2CCC(C)C2)n1` (stereo unspecified), the IC50 at TAK1/TAB1 stood at 900 nM.

On to `CNC(=O)CN(Cc1ccccc1)C(=O)c1c[nH]c(C(=O)N2CCCC2)n1`, for which the IC50 at TAK1/TAB1 was above 10000 nM.

Take `CNC(=O)CN(Cc1ccccc1OC)C(=O)c1c[nH]c(C(=O)N2CCCC2)c1`: the IC50 on TAK1/TAB1 was 2800 nM.

In general, IC50 refers to the concentration at which inhibition is half-maximal. For orientation: half-life means how long it takes for the measured level to halve. The term Papp A→B denotes how fast a substance crosses the layer from the apical side. A word on the Papp B→A: it is how fast a substance crosses the layer from the basolateral side. As a reminder, the solubility is the concentration that dissolves in the medium under given conditions. The inhibition is the change of the read-out against control, counted positive when it falls.
